# Patent US20260216197A1, “WRN HELICASE INHIBITOR” (SUZHOU PUHE BIOPHARMA CO., LTD., priority 2022, published 2026)
# Where two headings read alike, the source gives them in different places.
# Tests used:
# [1] = target: WRN helicase (Homo sapiens, UniProt Q14191); assay: WRN helicase hydrolysis/unwinding of double-stranded DNA (fluorescence); format: biochemical
# Method: The activity of the molecules of the present disclosure on the hydrolysis of double-stranded PP-6TR DNA by WRN helicase was tested.
# The working solution and buffer were prepared, and the test compound was dissolved in DMSO followed by a4-fold dilution (with a final concentration of 10 μM as the starting concentration). Then, 0.2 μL of the test compound solution was added to a384-well plate, followed by 10 μL of (2×) WRN enzyme solution. The mixture was incubated in the dark for 30 minutes, after which 10 μL of substrate detection solution containing double-stranded DNA was added to initiate the reaction (DNA length: 19 bp, labeled with TAMRA at the 3′ end and BHQ2 at the 5′ end). The mixture was incubated at room temperature for 60 minutes. The inhibitory activity (IC50) against the WRN enzyme was calculated based on the fluorescence change (Ex530/Em590) between the blank group (DMSO) and the compound group.
# [2] = system: MSI-H colorectal cancer SW48 cell line; assay: 2D anti-proliferative activity, MSI-H SW48 cells (CTG, 5 days); format: cell-based; details: for IC50: 5 days; for inhibition at 38.15 pM: 0.038146973 nM; for inhibition at 0.000152588 µM: 0.152587891 nM; for inhibition at 0.000610352 µM: 0.610351563 nM; for inhibition at 0.00244141 µM: 2.44140625 nM; for inhibition at 0.00976562 µM: 9.765625 nM; for inhibition at 0.0390625 µM: 39.0625 nM; for inhibition at 0.15625 µM: 156.25 nM; for inhibition at 0.625 µM: 625 nM; for inhibition at […]: 2500 nM; for inhibition at 10 µM: 10000 nM
# Method: The molecules of the present disclosure were tested for their anti-proliferative activity against MSI-H tumor cells.
# The proliferation of tumor cells with microsatellite instability MSI-H is sensitive to WRN inhibitors, while the proliferation of microsatellite stable (MSS) tumor cells is insensitive to WRN inhibitors. By testing the activities of the two, it is shown that the molecules of the present disclosure have an inhibitory and synthetic lethal effect on WRN at the cellular level.
# (§1) The MSI-unstable SW48 colorectal cancer cells were cultured in RPMI 1640 medium containing 10% FBS and 1% penicillin-streptomycin in a 37° C., 5% CO2 constant temperature incubator. A 40 μL cell suspension was added to each well of a 384-well microplate. Using Echo, 40 nL of compounds at different concentrations was dispensed into each well, followed by incubation in a 37° C., 5% CO2 constant temperature incubator for 5 days. Then, 40 μL of CTG solution (Promega, Cat No. G7573) was added to each well, and the plate was incubated in the dark in a 37° C., 5% CO2 constant temperature incubator for 30 minutes. Luminescence was measured using an Envision multi-function microplate reader (Perkin Elmer, Model: Envision 2104). The luminescent signal was proportional to the amount of ATP in the system, and the amount of ATP directly represented the number of living cells in the system.
# [3] = system: MSS colorectal cancer HT-29 cell line; assay: 2D anti-proliferative activity, MSS HT-29 cells (CTG, 5 days); format: cell-based
# Method: The molecules of the present disclosure were tested for their anti-proliferative activity against MSS tumor cells.
# as §1, with “MSS HT-29” for “MSI-unstable SW48”, “McCoy's 5A” for “RPMI 1640”
# [4] = Liver microsome stability test; format: in vitro ADME; details: human liver microsomes 0.5 mg/mL, compound 1 μM, NADPH 1 mM, 60 minutes; for microsomal CLint at 1 μM: read-out: Human Clint μL/min/mg Protein
# Method: The liver microsome stability test of the compounds is as follows:
# The compounds of the present disclosure were subjected to a liver microsome stability test. The compounds to be tested were co-incubated with liver microsomes of different species with or without the addition of NADPH. The final concentration of the compounds to be tested in the test system was 1 μM, the final concentration of NADPH was 1 mM, and the final concentration of liver microsomes was 0.5 mg/mL.
# [5] = Pharmacokinetic evaluation in mice; format: in vivo, CD1 female mice; details: for AUC(0-t): read-out: AUC0-24
# Method: CD1 female mice were used as test animals and the drug was administered orally/intravenously (oral dosage: 10 mg/kg, intravenous dosage: 2 mg/kg).
# Assay protocol: The oral group consisted of 3 mice per group (vehicle: 10% Hβ-CD-pH7.4), and the intravenous group consisted of 3 mice per group. […] The blood concentrations in plasma after oral and intravenous administration of mice were determined by LC/MS/MS, respectively.
# [6] = Homo sapiens, read-out: Average value/ Inhibition rate
# [7] = Homo sapiens, read-out: Test 1/ Inhibition rate
# [8] = Homo sapiens, read-out: Test 2/ Inhibition rate
# [9] = female, CD1, mouse, plasma, IV 2 mg/kg
# [10] = female, CD1, mouse, plasma, PO 10 mg/kg
# Sequence of WRN helicase (Q14191 whole entry): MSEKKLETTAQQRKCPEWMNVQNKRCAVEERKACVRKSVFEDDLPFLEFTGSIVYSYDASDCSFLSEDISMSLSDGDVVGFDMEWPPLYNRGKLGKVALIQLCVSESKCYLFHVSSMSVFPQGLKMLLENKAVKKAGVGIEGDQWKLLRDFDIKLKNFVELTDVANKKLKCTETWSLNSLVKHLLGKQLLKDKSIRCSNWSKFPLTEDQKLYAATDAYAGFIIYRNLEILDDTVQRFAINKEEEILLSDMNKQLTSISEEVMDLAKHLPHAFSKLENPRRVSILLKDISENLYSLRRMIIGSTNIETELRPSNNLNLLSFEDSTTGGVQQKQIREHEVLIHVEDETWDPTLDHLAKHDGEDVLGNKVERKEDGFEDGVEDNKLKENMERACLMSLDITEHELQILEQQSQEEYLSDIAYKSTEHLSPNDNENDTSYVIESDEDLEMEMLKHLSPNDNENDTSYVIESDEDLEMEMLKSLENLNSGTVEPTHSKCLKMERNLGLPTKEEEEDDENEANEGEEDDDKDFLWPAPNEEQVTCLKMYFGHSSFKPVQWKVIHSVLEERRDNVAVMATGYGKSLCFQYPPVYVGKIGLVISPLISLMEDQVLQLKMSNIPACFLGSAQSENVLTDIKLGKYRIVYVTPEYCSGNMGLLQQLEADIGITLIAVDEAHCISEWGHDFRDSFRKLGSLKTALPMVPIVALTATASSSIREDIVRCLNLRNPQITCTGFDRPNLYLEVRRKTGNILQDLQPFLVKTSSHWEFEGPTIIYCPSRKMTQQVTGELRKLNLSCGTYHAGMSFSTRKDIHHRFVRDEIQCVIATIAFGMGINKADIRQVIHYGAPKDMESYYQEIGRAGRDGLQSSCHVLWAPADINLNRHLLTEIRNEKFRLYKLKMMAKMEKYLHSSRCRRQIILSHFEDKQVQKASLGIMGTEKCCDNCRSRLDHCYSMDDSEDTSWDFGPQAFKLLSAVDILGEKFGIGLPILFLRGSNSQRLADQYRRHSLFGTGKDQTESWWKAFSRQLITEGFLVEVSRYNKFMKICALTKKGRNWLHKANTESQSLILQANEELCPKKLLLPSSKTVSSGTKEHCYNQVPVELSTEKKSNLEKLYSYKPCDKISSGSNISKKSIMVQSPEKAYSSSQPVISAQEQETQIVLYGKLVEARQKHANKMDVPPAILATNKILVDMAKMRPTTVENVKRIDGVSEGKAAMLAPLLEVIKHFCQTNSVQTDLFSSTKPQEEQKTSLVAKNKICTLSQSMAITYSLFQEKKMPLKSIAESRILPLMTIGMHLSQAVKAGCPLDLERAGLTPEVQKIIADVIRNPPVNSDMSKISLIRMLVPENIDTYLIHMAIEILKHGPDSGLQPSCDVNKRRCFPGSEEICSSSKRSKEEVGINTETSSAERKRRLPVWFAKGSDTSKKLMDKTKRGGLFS
structure (smiles),measurement,setting,value
CCc1c(N2CCN(C(=O)c3ncccc3O)CC2)c(=O)n2nc(C3=CCOCC3)nc2n1CC(=O)Nc1ccc(C(F)(F)F)c2ccsc12 [Compound H2],IC50,[1],1.4 nM
same,IC50,"[2]; Homo sapiens, 120 h",131 nM
same,IC50,"[3]; Homo sapiens, 120 h",3500 nM
same,CLint scaled at 1 μM,[4],19.7 mL/min/kg
same,microsomal CLint at 1 μM,[4],15.7 µL/min/mg
CCc1c(N2CCN(C(=O)c3ncnc(C)c3O)CC2)c(=O)n2nc(C3=CCOCC3)nc2n1CC(=O)Nc1ccc(C(F)(F)F)c2c1OCC2 [Compound H3],IC50,[1],1.6 nM
same,IC50,[2],216 nM
same,IC50,[3],> 10000 nM
same,Human Clint μL/min/mg Protein,[4],2.2 μL/min/mg Protein
same,Human Clint/(mL/min/kg),[4],2.7 mL/min/kg
CCc1c(N2CCN(C(=O)c3ncccc3O)CC2)c(=O)n2nc(C3=CCC(OC)CC3)nc2n1CC(=O)Nc1ccc(C(F)(F)F)c2ccsc12 (stereo not drawn) [Compound H8],IC50,[1],1.3 nM
same,IC50,"[2]; Homo sapiens, 120 h",124 nM
same,IC50,"[3]; Homo sapiens, 120 h",1480 nM
CCc1c(N2CCN(C(=O)c3ncccc3O)CC2)c(=O)n2nc(N3CCOCC3)nc2n1CC(=O)Nc1ccc(C(F)(F)F)c2ccsc12 [Compound H9],IC50,[1],1.7 nM
same,IC50,"[2]; Homo sapiens, 120 h",193 nM
same,IC50,"[3]; Homo sapiens, 120 h",> 10000 nM
same,CLint scaled at 1 μM,[4],13 mL/min/kg
same,microsomal CLint at 1 μM,[4],10.3 µL/min/mg
CCc1c(N2CCN(C(=O)c3ncccc3O)CC2)c(=O)n2nc(N3CCC[C@H](F)C3)nc2n1CC(=O)Nc1ccc(C(F)(F)F)c2ccsc12 [Compound H11],IC50,[1],2.4 nM
same,IC50,"[2]; Homo sapiens, 120 h",1140 nM
same,IC50,"[3]; Homo sapiens, 120 h",7410 nM
CCc1c(N2CCN(C(=O)c3ncnc(C)c3O)CC2)c(=O)n2nc(C3=CCOCC3)nc2n1CC(=O)Nc1ccc(C(F)(F)F)c2sccc12 [Compound H13],IC50,[1],1.2 nM
same,inhibitory activity on SW48 cells,[2]; 39 nM,high inhibitory activity
same,inhibition at 38.15 pM,[2]; [6],-1.31%
same,inhibition at 38.15 pM,[2]; [7],-1.51%
same,inhibition at 38.15 pM,[2]; [8],-1.1%
same,inhibition at 0.000152588 µM,[2]; [6],0.853%
same,inhibition at 0.000152588 µM,[2]; [7],2.48%
same,inhibition at 0.000152588 µM,[2]; [8],-0.775%
same,inhibition at 0.000610352 µM,[2]; [6],-1.43%
same,inhibition at 0.000610352 µM,[2]; [7],-3.56%
same,inhibition at 0.000610352 µM,[2]; [8],0.706%
same,inhibition at 0.00244141 µM,[2]; [6],-3.17%
same,inhibition at 0.00244141 µM,[2]; [7],0.0291%
same,inhibition at 0.00244141 µM,[2]; [8],-6.36%
same,inhibition at 0.00976562 µM,[2]; [6],0.332%
same,inhibition at 0.00976562 µM,[2]; [7],-3.9%
same,inhibition at 0.00976562 µM,[2]; [8],4.57%
same,inhibition at 0.0390625 µM,[2]; [6],76.4%
same,inhibition at 0.0390625 µM,[2]; [7],76.2%
same,inhibition at 0.0390625 µM,[2]; [8],76.6%
same,inhibition at 0.15625 µM,[2]; [6],97.6%
same,inhibition at 0.15625 µM,[2]; [7],98.6%
same,inhibition at 0.15625 µM,[2]; [8],96.6%
same,inhibition at 0.625 µM,[2]; [6],99.4%
same,inhibition at 0.625 µM,[2]; [7],99.6%
same,inhibition at 0.625 µM,[2]; [8],99.2%
same,inhibition at […],[2]; [6],99.6%
same,inhibition at […],[2]; [7],99.7%
same,inhibition at […],[2]; [8],99.5%
same,inhibition at 10 µM,[2]; [6],101%
same,inhibition at 10 µM,[2]; [7],103%
same,inhibition at 10 µM,[2]; [8],100%
same,IC50,"[2]; Homo sapiens, 120 h",28 nM
same,IC50,"[3]; Homo sapiens, 120 h",> 10000 nM
same,CLint scaled at 1 μM,[4],7.9 mL/min/kg
same,microsomal CLint at 1 μM,[4],6.3 µL/min/mg
same,F,[5]; PO 10 mg/kg vs IV 2 mg/kg,24%
same,clearance,[5]; [9],42.9 mL/min/kg
same,AUC(0-t),[5]; [9],722 ng·h/mL
same,C0,"[5]; female, CD1, mouse, plasma, IV 2 mg/kg, read-out: C0",2530 ng/mL
same,half-life,[5]; [10],66 min
same,AUC(0-t),[5]; [10],943 ng·h/mL
same,Cmax,"[5]; female, CD1, mouse, plasma, PO 10 mg/kg, read-out: Cmax",551 ng/mL
same,Tmax,"[5]; female, CD1, mouse, plasma, PO 10 mg/kg, read-out: Tmax",30 min
CCc1c(N2CCN(C(=O)c3ncnc(C)c3O)CC2)c(=O)n2nc(C3=CCOCC3)nc2n1CC(=O)Nc1ccc(C(F)(F)F)c2ncsc12 [Compound H14],IC50,[1],3.9 nM
same,IC50,"[2]; Homo sapiens, 120 h",2200 nM
same,IC50,"[3]; Homo sapiens, 120 h",> 10000 nM
CCc1c(N2CCN(C(=O)c3nccc(Cl)c3O)CC2)c(=O)n2nc(C3=CCOCC3)nc2n1CC(=O)Nc1ccc(C(F)(F)F)c2ccsc12 [Compound H19],IC50,[1],0.9 nM
same,IC50,"[2]; Homo sapiens, 120 h",125 nM
same,IC50,"[3]; Homo sapiens, 120 h",> 10000 nM
same,CLint scaled at 1 μM,[4],0.73 mL/min/kg
same,microsomal CLint at 1 μM,[4],0.58 µL/min/mg
CCc1c(N2CCN(C(=O)c3nccc(F)c3O)CC2)c(=O)n2nc(C3=CCOCC3)nc2n1CC(=O)Nc1ccc(C(F)(F)F)c2ccsc12 [Compound H20],IC50,[1],1 nM
same,IC50,"[2]; Homo sapiens, 120 h",75 nM
same,IC50,"[3]; Homo sapiens, 120 h",> 10000 nM
same,CLint scaled at 1 μM,[4],25.9 mL/min/kg
same,microsomal CLint at 1 μM,[4],20.6 µL/min/mg
